# According to patent publication US8580782B2, “Substituted pyrazolo[1,5-a]pyrimidines as cyclin dependent kinase inhibitors” (Merck Sharp & Dohme Corp., priority 2002, dated 2013):
# Target: CDK2 (cyclin A or cyclin E complex) (Homo sapiens (Human), UniProt P24941)
# Assay: CDK2 in vitro kinase assay (either cyclin A or E-dependent), SPA with biotinylated Histone H1 peptide and 33P-ATP
# Type: biochemical
# Details: Table 87
# Description: Assay: • Baculovirus Constructions: Cyclins A and E were cloned into pFASTBAC (Invitrogen) by PCR, with the addition of a GluTAG sequence (EYMPME) at the amino-terminal end to allow purification on anti-GluTAG affinity columns. The expressed proteins were approximately 46 kDa (cyclin E) and 50 kDa (cyclin A) in size. CDK2 was also cloned into pFASTBAC by PCR, with the addition of a haemaglutinin epitope tag at the carboxy-terminal end ([sequence]). The expressed protein was approximately 34 kDa in size. • Enzyme Production: Recombinant baculoviruses expressing cyclins A, E and CDK2 were infected into SF9 cells at a multiplicity of infection (MOI) of 5, for 48 hrs. Cells were harvested by centrifugation at 1000 RPM for 10 minutes. Cyclin-containing (E or A) pellets were combined with CDK2 containing cell pellets and lysed on ice for 30 minutes in five times the pellet volume of lysis buffer containing 50 mM Tris pH 8.0, 0.5% NP40, 1 mM DTT and protease/phosphatase inhibitors (Roche Diagnostics GmbH, Mannheim, Germany). Mixtures were stirred for 30-60 minutes to promote cyclin-CDK2 complex formation. Mixed lysates were then spun down at 15000 RPM for 10 minutes and the supernatant retained. 5 ml of anti-GluTAG beads (for one liter of SF9 cells) were then used to capture cyclin-CDK2 complexes. Bound beads were washed three times in lysis buffer. Proteins were competitively eluted with lysis buffer containing 100-200 ug/mL of the GluTAG peptide. Eluate was dialyzed overnight in 2 liters of kinase buffer containing 50 mM Tris pH 8.0, 1 mM DTT, 10 mM MgCl2, 100 uM sodium orthovanadate and 20% glycerol. Enzyme was stored in aliquots at −70° C. • In Vitro Kinase Assay: CDK2 kinase assays (either cyclin A or E-dependent) were performed in low protein binding 96-well plates (Corning Inc, Corning, N.Y.). Enzyme was diluted to a final concentration of 50 μg/ml in kinase buffer containing 50 mM Tris pH 8.0, 10 mM MgCl2, 1 mM DTT, and 0.1 mM sodium orthovanadate. The substrate used in these reactions was a biotinylated peptide derived from Histone H1 (from Amersham, UK). The substrate was thawed on ice and diluted to 2 μM in kinase buffer. Compounds were diluted in 10% DMSO to desirable concentrations. For each kinase reaction, 20 μl of the 50 μg/ml enzyme solution (1 μg of enzyme) and 20 μl of the 1 μM substrate solution were mixed, then combined with 10 μl of diluted compound in each well for testing. […] The reaction was allowed to run for 1 hour at room temperature. The reaction was stopped by adding 200 μl of stop buffer containing 0.1% Triton X-100, 1 mM ATP, 5 mM EDTA, and 5 mg/ml streptavidine coated SPA beads (from Amersham, UK) for 15 minutes. The SPA beads were then captured onto a 96-well GF/B filter plate (Packard/Perkin Elmer Life Sciences) using a Filtermate universal harvester (Packard/Perkin Elmer Life Sciences.). Non-specific signals were eliminated by washing the beads twice with 2M NaCl then twice with 2 M NaCl with 1% phosphoric acid. The radioactive signal was then measured using a TopCount 96 well liquid scintillation counter (from Packard/Perkin Elmer Life Sciences). • IC50 Determination: Dose-response curves were plotted from inhibition data generated, each in duplicate, from 8 point serial dilutions of inhibitory compounds. Concentration of compound was plotted against % kinase activity, calculated by CPM of treated samples divided by CPM of untreated samples. To generate IC50 values, the dose-response curves were then fitted to a standard sigmoidal curve and IC50 values were derived by nonlinear regression analysis. These kinase activities were generated by using cyclin A or cyclin E using the above-described assay.
row,SMILES,IC50 [µM]
1,CC(C)(C)c1cc(NCc2ccncc2)n2ncc(Br)c2n1 [Example 12],0.17
2,N#Cc1cnn2c(NCc3ccncc3)cc(-c3ccccc3)nc12 [Example 16],0.62
3,CC(C)c1cc(NCc2ccncc2)n2ncc(Br)c2n1 [Example 10],0.042

# The next compounds have a lower IC50 than those just listed; values first:
row,IC50 [µM],SMILES
1,0.003,Clc1ccccc1-c1cc(NCc2cccnc2)n2ncc(Br)c2n1 [Example 8]
2,0.011,Fc1ccccc1-c1cc(NCc2cccnc2)n2ncc(Br)c2n1 [Example 4]
3,0.021,Fc1ccccc1-c1cc(NCc2cccnc2)n2ncc(Cl)c2n1 [Example 5]
